# Columns and labels:
# [1] = test system: Matricaria inodora; assay: Pre-emergence herbicidal effect; type: in vivo; details: Dosage 320 g/ha, visual scoring after 3 weeks vs untreated controls, 100% = plants have died
# From the text: (§1) 1. Pre-Emergence Herbicidal Effect and Crop Plant Compatibility Seeds of monocotyledonous or dicotyledonous weed plants or crop plants are planted in wood-fiber pots in sandy loam and covered with earth. The compounds according to the invention, formulated in the form of wettable powders (WP) or as emulsion concentrates (EC), are then applied as aqueous suspension or emulsion at a water application rate of 600 to 800 l/ha (converted) with the addition of 0.2% of wetting agent to the surface of the covering earth. The dosage of the compounds according to the invention is given in grams per hectare. Following the treatment, the pots are placed in a greenhouse and kept under good growth conditions for the test plants. The visual scoring of the damage on the test plants is carried out after an experiment time of 3 weeks in comparison with untreated controls (herbicidal effect in percent (%): 100% effect=plants have died, 0% effect=as control plants). The following abbreviations are used in the tables below: [table]
# [2] = test system: Stellaria media; assay: Pre-emergence herbicidal effect; type: in vivo; details: Dosage 320 g/ha, visual scoring after 3 weeks vs untreated controls, 100% = plants have died
# From the text: as §1
# [3] = test system: Amaranthus retroflexus; assay: Pre-emergence herbicidal effect; type: in vivo; details: Dosage 320 g/ha, visual scoring after 3 weeks vs untreated controls, 100% = plants have died
# From the text: as §1
# [4] = test system: Veronica persica; assay: Pre-emergence herbicidal effect; type: in vivo; details: Dosage 320 g/ha, visual scoring after 3 weeks vs untreated controls, 100% = plants have died
# From the text: as §1
# [5] = test system: Polygonum convolvulus; assay: Pre-emergence herbicidal effect; type: in vivo; details: Dosage 320 g/ha, visual scoring after 3 weeks vs untreated controls, 100% = plants have died
# From the text: as §1
# [6] = test system: Setaria viridis; assay: Pre-emergence herbicidal effect; type: in vivo; details: Dosage 320 g/ha, visual scoring after 3 weeks vs untreated controls, 100% = plants have died
# From the text: as §1
# [7] = test system: Echinochloa crus-galli; assay: Pre-emergence herbicidal effect; type: in vivo; details: Dosage 320 g/ha, visual scoring after 3 weeks vs untreated controls, 100% = plants have died
# From the text: as §1
# [8] = test system: Alopecurus myosuroides; assay: Pre-emergence herbicidal effect; type: in vivo; details: Dosage 320 g/ha, visual scoring after 3 weeks vs untreated controls, 100% = plants have died
# From the text: as §1
# [9] = test system: Viola tricolor; assay: Pre-emergence herbicidal effect; type: in vivo; details: Dosage 320 g/ha, visual scoring after 3 weeks vs untreated controls, 100% = plants have died
# From the text: as §1
# [10] = test system: Lolium multiflorum; assay: Pre-emergence herbicidal effect; type: in vivo; details: Dosage 320 g/ha, visual scoring after 3 weeks vs untreated controls, 100% = plants have died
# From the text: as §1
# [11] = logp (HCOOH), chemicophysical data; details: HCOOH
# [12] = test system: Stellaria media; assay: Post-emergence herbicidal effect; type: in vivo; details: Dosage 320 g/ha, one-leaf stage, visual scoring after ca. 3 weeks vs untreated controls, 100% = plants have died
# Protocol: (§2) The following abbreviations are used in the tables below: [table] 2. Post-Emergence Herbicidal Effect and Crop Plant Compatibility Seeds of monocotyledonous or dicotyledonous weed plants or crop plants are planted in wood-fiber pots in sandy loam, covered with earth and grown in a greenhouse under good growth conditions. 2 to 3 weeks after sowing, the test plants are treated in the one-leaf stage. The compounds according to the invention, formulated in the form of wettable powders (WP) or as emulsion concentrates (EC), are then sprayed onto the green plant parts as aqueous suspension or emulsion at a water application rate of 600 to 800 l/ha (converted) with the addition of 0.2% of wetting agent. The dosage of the compounds according to the invention is given in grams per hectare. After ca. 3 weeks' standing time of the test plants in the greenhouse under optimum growth conditions, the effect of the preparations is scored visually in comparison with untreated controls (herbicidal effect in percent (%): 100% effect=plants have died, 0% effect=as control plants).
# [13] = test system: Amaranthus retroflexus; assay: Post-emergence herbicidal effect; type: in vivo; details: Dosage 320 g/ha, one-leaf stage, visual scoring after ca. 3 weeks vs untreated controls, 100% = plants have died
# Protocol: as §2
# [14] = test system: Veronica persica; assay: Post-emergence herbicidal effect; type: in vivo; details: Dosage 320 g/ha, one-leaf stage, visual scoring after ca. 3 weeks vs untreated controls, 100% = plants have died
# Protocol: as §2
# [15] = test system: Echinochloa crus-galli; assay: Post-emergence herbicidal effect; type: in vivo; details: Dosage 320 g/ha, one-leaf stage, visual scoring after ca. 3 weeks vs untreated controls, 100% = plants have died
# Protocol: as §2
# [16] = test system: Abutilon theophrasti; assay: Post-emergence herbicidal effect; type: in vivo; details: Dosage 320 g/ha, one-leaf stage, visual scoring after ca. 3 weeks vs untreated controls, 100% = plants have died
# Protocol: as §2
# [17] = test system: Viola tricolor; assay: Post-emergence herbicidal effect; type: in vivo; details: Dosage 320 g/ha, one-leaf stage, visual scoring after ca. 3 weeks vs untreated controls, 100% = plants have died
# Protocol: as §2
# [18] = test system: PHBPU; assay: Post-emergence herbicidal effect; type: in vivo; details: Dosage 320 g/ha, one-leaf stage, visual scoring after ca. 3 weeks vs untreated controls, 100% = plants have died
# Protocol: as §2, with “2.” for “The following abbreviations are used in the tables below: [table] 2.”
# [19] = test system: Avena fatua; assay: Pre-emergence herbicidal effect; type: in vivo; details: Dosage 320 g/ha, visual scoring after 3 weeks vs untreated controls, 100% = plants have died
# From the text: as §1
# [20] = test system: Setaria viridis; assay: Post-emergence herbicidal effect; type: in vivo; details: Dosage 320 g/ha, one-leaf stage, visual scoring after ca. 3 weeks vs untreated controls, 100% = plants have died
# Protocol: as §2
SMILES,Pre-emergence herbicidal effect MATIN [1] [%],Pre-emergence herbicidal effect STEME [2] [%],Pre-emergence herbicidal effect AMARE [3] [%],Pre-emergence herbicidal effect VERPE [4] [%],Pre-emergence herbicidal effect POLCO [5] [%],Pre-emergence herbicidal effect SETVI [6] [%],Pre-emergence herbicidal effect ECHCG [7] [%],Pre-emergence herbicidal effect ALOMY [8] [%],Pre-emergence herbicidal effect VIOTR [9] [%],Pre-emergence herbicidal effect LOLMU [10] [%],logp (HCOOH) [11],Post-emergence herbicidal effect STEME [12] [%],Post-emergence herbicidal effect AMARE [13] [%],Post-emergence herbicidal effect VERPE [14] [%],Post-emergence herbicidal effect ECHCG [15] [%],Post-emergence herbicidal effect ABUTH [16] [%],Post-emergence herbicidal effect VIOTR [17] [%],Post-emergence herbicidal effect PHBPU [18] [%],Pre-emergence herbicidal effect AVEFA [19] [%],Post-emergence herbicidal effect SETVI [20] [%]
Cc1nc(NC2CCOc3ccccc32)nc(N)c1[N+](=O)[O-] (racemic) [Example 1.121],100,100,100,100,100,100,100,80,100,90,–,–,–,–,–,–,–,–,–,–
Cc1nc(NC2c3ccccc3CC2C)nc(N)c1[N+](=O)[O-] (racemic) [Example 1.125],95,100,90,100,90,90,90,80,100,–,–,–,–,–,–,–,–,–,–,–
Nc1nc(N[C@@H]2CCCc3ccccc32)ncc1I [Example 1.37],90,100,100,100,–,–,100,–,–,100,"wax-like; logp (HCOOH): 1.32; 1H-NMR (CDCl3, 400 MHZ, δ in ppm): 1.85 (m, 2H, CH2);",95,100,90,80,85,80,80,–,–
Cc1ccc2c(c1)[C@H](Nc1nc(C)c(I)c(N)n1)[C@@H](C)C2 [Example 1.46],100,100,100,100,100,100,–,80,100,100,"wax-like; logp (HCOOH): 1.39; 1H-NMR (CDCl3, 400 MHZ, δ in ppm): 1.25 (d, 3H, CH3);",90,100,90,–,100,90,–,80,90
CCc1nc(N[C@H]2c3cc(C)ccc3C[C@@H]2C)nc(N)c1C#N [Example 1.61],90,100,100,100,100,90,100,100,100,–,"solid, m.p.: 126.9° C.; logp (HCOOH): 3.07; 1H-NMR (CDCl3, 400 MHZ, δ in ppm): 1.25",90,–,90,90,80,80,–,90,–
